From patent US8951734B2, “Prion-like form of CPEB and related compositions and methods” (priority 2003, dated 2015)
*1 amine or outer side, *2 acyl side, *3 side chain or, on linkers, in order; H or OH if unused. Where a SMILES comes first, the peptide text is derived from it. Bridges are numbered along the chain shown (N, C = ends). Roman numbers before positions name the chains, in order. [ ]: non-standard residue; d: D form. Actinocin(9to1) = Cc1c2oc3c(C)ccc(C(=O)[*:1])c3nc-2c(C(=O)[*:2])c(N)c1=O; NMeV = CN[C@H](C(=O)O)C(C)C; Sar = CNCC(=O)O

Assays:
ApCPEB [1] = test: ApCPEB protein induction in isolated pleural ganglia / sensory cell clusters stimulated with 5-HT, with or without pharmacological agents (Western blot); type: cell-based, Aplysia; details: for effect on 5-HT induction of ApCPEB: pretreatment
Experimental: (§1) Aplysia weighing 80-100 grams were used for serotonin (5-HT) stimulation. For whole animal stimulation, the animals were stimulated for 1-1.5 hr at 17° C. with 100 uM of freshly prepared serotonin (Sigma) and then moved to sea water at 17° C. At designated times the pleural ganglia were dissected out. The dissection was carried out in ice cold seawater and frozen in a dry ice-ethanol bath. To apply different pharmacological agents, the pleural ganglia were dissected out and rested for 3-4 hrs at 17° C. before initiation of the treatment. The pleural ganglia were stimulated with 10 uM serotonin instead of 100 uM.
(§2) For western blotting pleural ganglia were homogenized in a buffer containing 600 mM KCl, 10 mM HEPES (7.4), 3 mM MgCl2, 1 mM DTT, and 0.2% NP-40; rotated at 4° C. for 20 min, centrifuged at 14,000×g for 10 min and the supernatant was collected. Approximately 10 ug of total protein was separated on a 10% SDS-PAGE gel and transferred to PVDF membrane. The membranes were blotted with affinity purified CPEB 533 (1:4000), rabbit affinity purified Aplysia Ubiquitin hydrolase (1:1500), rabbit anti-synaptophysin (Zymed) (1:3000), mouse anti-human Hsp70 (1:4000) (BD Biosciences) or monoclonal anti-tubulin (1:3000) (Sigma) followed by incubation with 1:10,000 dilution of HRP coupled anti-rabbit or anti-mouse secondary antibody (Cell signaling) and visualized by chemiluminescence (Pierce chemical). For peptide competition the CPEB77 antibody was preincubated with the peptide (1:20 w/w) at 4° C. for 30 min.

ApCPEB [2] = test: ApCPEB immunostaining in isolated sensory neurites (cell bodies severed); type: cell-based, Aplysia
Experimental: (§3) Following stimulation with serotonin, the cells were washed with filtered seawater and then fixed with freshly prepared 4% paraformaldehyde (PFA) in phosphate-buffered saline (PBS) plus 30% sucrose at 37° C. for 20 min. After fixation, cells were washed three times with PBS and incubated with 0.5% saponin (for isolated neurites) or 0.1% Triton X-100 (for one pulse of serotonin in the neurites) in PBS for 10 min at room temperature (RT). Subsequently cells were washed with PBS three times and excess PFA was quenched by incubating the cells in 50 mM NH4Cl in PBS for 15 min at RT. The fixed cells were blocked with a mixture of heat-inactivated 10% horse serum and 1% goat serum in PBS for 2 hr at RT, then in 1:30 dilution of affinity purified CPEB77 (for isolated neurites) or 1:100 dilution of 463 (for one pulse of serotonin in the synapse) overnight at 4° C. Next day cells were washed three times (20 min each wash) with PBS at RT before incubating with goat anti-rabbit secondary antibody conjugated with Alexa Fluor 488 (1:1000) (Molecular Probes) for 2 hr at room temperature. After three 15 min rinses with PBS cells were mounted on Fluoromount and pictures were taken at Zeiss Axiovert S-100 at 40× magnification using the program Metamorph.

[3] = test system: sensory-motor neuron synapses; details: cited from earlier work
ApCPEB [4] = test: ApCPEB immunostaining in bifurcated sensory-motor culture, one branch stimulated with a single pulse of 5-HT; type: cell-based, Aplysia; details: 10 uM 5-HT for 50 seconds to one branch; fixed after one hour; n=10
Experimental: as §3, with “Metamorph. […]” for “Metamorph.”

ApCPEB mRNA = test: Semi-quantitative RT-PCR of ApCPEB mRNA in sensory cells of pleural ganglia; type: cell-based, Aplysia
N-actin mRNA = test: Poly-A tail length (PAT) assay of N-actin mRNA after whole-animal serotonin stimulation; type: in vivo, Aplysia
Experimental: The polyA test (PAT) to measure the length of the polyA tail of CPEB mRNA was essentially done as described by Salles and Strickland (1999). Total RNA from the plural ganglia was digested with DNase1 and phenol: chloroform extracted. 3 ug of total RNA was reverse transcribed with 200 ng of AdT primer (5′-[…]-3′) (SEQ ID NO:23) using AMV reverse transcriptase. 2 ul of the cDNA was amplified with Taq polymerase using AdT and N-actin primer 5′-[…]-3′ (SEQ ID NO:17) in the PCR cycle: 94° C. 30 sec, 60° C. 1 min and 72° C. 1 min, 5 sec/cycle for 30 cycles. To check the amount of sensorin, Bmp1 and N-actin, the following primer pairs were used; sensorin-5′-AACAGAAACAGTC-TTTCCCCC-3′ (SEQ ID NO:24) and 5′-TCTTGACTCACCAACTGCC-3′ (SEQ ID NO:25), Bmp1-5′-ATCTATCGCCTATT-ATTATCACCA-3′ (SEQ ID NO:26) and 5′-[…]-3′ (SEQ ID NO:27), N-actin 5′-CCCATCCAT-TGTCCACA-3′ (SEQ ID NO:28) and 5′-TTTGAGCATTCTGGCTTC-3′(SEQ ID NO:29).

ApCPEB [5] = test: ApCPEB protein in pleural ganglia after whole-animal serotonin exposure (Western blot); type: in vivo, Aplysia
Experimental: as §1, §2

[6] = whole animal serotonin exposure then seawater

## Cc1c2oc3c(C)ccc(C(=O)N[C@@H]4C(=O)N[C@H](C(C)C)C(=O)N5CCC[C@H]5C(=O)N(C)CC(=O)N(C)[C@@H](C(C)C)C(=O)O[C@@H]4C)c3nc-2c(C(=O)N[C@@H]2C(=O)N[C@H](C(C)C)C(=O)N3CCC[C@H]3C(=O)N(C)CC(=O)N(C)[C@@H](C(C)C)C(=O)O[C@@H]2C)c(N)c1=O [actinomycin D] (I: T[dV]P[Sar][NMeV] / II: T[dV]P[Sar][NMeV]; ester I:1-I:C, II:1-II:C; linker I:N-II:N via Actinocin(9to1))
ApCPEB [1]; 10 ug/ml
  effect on 5-HT induction of ApCPEB: did not block

## CC[C@H](C)[C@@H]1NC(=O)CNC(=O)[C@@H]2Cc3c([nH]c4cc(O)ccc34)[S+]([O-])C[C@@H](NC(=O)CNC1=O)C(=O)N[C@@H](CC(N)=O)C(=O)N1C[C@H](O)C[C@H]1C(=O)N[C@@H]([C@@H](C)[C@@H](O)CO)C(=O)N2 (stereo in doubt) [α-amanitin]
ApCPEB [1]; 50 ug/ml
  effect on 5-HT induction of ApCPEB: did not block

## Nc1ncnc2c1ncn2[C@@H]1O[C@@H]2COP(O)(=S)O[C@H]2[C@H]1O (stereo partly drawn) [SpcAMP]
ApCPEB [1]; activation of PKA by cell permeable cAMP analog, data not shown
  level of ApCPEB: did not change

## CC[C@H]1CN2CCc3cc(OC)c(OC)cc3[C@@H]2C[C@@H]1C[C@H]1NCCc2cc(OC)c(OC)cc21 [emetine]
ApCPEB [1]; 100 uM
  effect on 5-HT induction of ApCPEB protein: reduced

## CCCCCCOC(=O)[C@]1(O)C[C@@H]2O[C@@]1(C)n1c3ccccc3c3c4c(c5c6ccccc6n2c5c31)C(=O)NC4 [KT5720]
ApCPEB [1]; PKA inhibitor pretreatment of sensory clusters, 30 min
  effect on serotonin induced increase in ApCPEB: did not block

## C[C@@H]1C[C@@H]([C@H](O)CC2CC(=O)NC(=O)C2)C(=O)[C@@H](C)C1 [cycloheximide]
ApCPEB [1]; 40 uM
  effect on 5-HT induction of ApCPEB protein: reduced

## CO[C@H]1C[C@@H]2CC[C@@H](C)[C@@](O)(O2)C(=O)C(=O)N2CCCC[C@H]2C(=O)O[C@H]([C@H](C)C[C@@H]2CC[C@@H](O)[C@H](OC)C2)CC(=O)[C@H](C)/C=C(\C)[C@@H](O)[C@@H](OC)C(=O)[C@H](C)C[C@H](C)/C=C/C=C/C=C/1C [rapamycin]
ApCPEB [2]; neurites stimulated with 5-HT in presence of 20 nM rapamycin, n=9
  average fluorescence intensity (ApCPEB immunoreactivity): 0.77±0.1

## NCCc1c[nH]c2ccc(O)cc12 [serotonin]
[3]; five pulses (Martin et al. 1997)
  duration of long-term facilitation (LTF): three or more days
[3]; single pulse to one of two sets of synapses (Martin et al. 1997)
  duration of synapse-specific short-term facilitation: lasts for minutes
ApCPEB [4]
  average fluorescence intensity (ApCPEB immunoreactivity) in treated branch: 53.3±8.7
ApCPEB mRNA
  amount of ApCPEB mRNA, treated versus untreated: no significant difference
N-actin mRNA; whole-animal stimulation
  duration of increased poly(A) tail of N-actin: at least 4 hours
N-actin mRNA; within an hour after initiation of treatment
  increase of poly(A) tail of N-actin: 200-400 nucleotides
ApCPEB [2]; 10 uM 5-HT bath application 1 hr, n=8
  average fluorescence intensity (ApCPEB immunoreactivity) in stimulated neurites: 9.37±0.73
ApCPEB [1]; 5-HT for an hour, western blots scanned and quantified with NIH image, controls of inhibitor sets (FIG. 5d)
  average fold induction of ApCPEB: 3.3±0.4
ApCPEB [1]; isolated pleural ganglia, 10 uM 5-HT
  increase of total CPEB content: 3-4 fold
ApCPEB [1]; sensory cell clusters, 10 uM 5-HT for 10 min, then seawater 50 min
  increase in total ApCPEB protein content: 4-5 fold
ApCPEB [5]; whole animal exposed to serotonin for one hour, thirty minutes after initiation of treatment, pleural ganglia extract
  increase of total content of ApCPEB: 4 to 5 fold
ApCPEB [5]; [6]
  persistence of increased level of ApCPEB: about 3 hours
  return of ApCPEB to basal levels: returned to basal levels after five hours

## COc1ccc2c(c[n+](C)c3c4cc5c(cc4ccc23)OCO5)c1OC [chelerythrine]
ApCPEB [1]; PKC inhibitor, 10 uM
  effect on serotonin dependent increase of ApCPEB protein: did not affect
